Data published in ChEMBL document CHEMBL4828759, “Targeted methylation facilitates DNA double strand breaks and enhances cancer suppression: A DNA intercalating/methylating dual-action chimera Amonafidazene” (Eur J Med Chem, 2021).
Calls of active or inactive are those of the source. No cut-off for these calls is given here.

Legend:
A 172 = assay: Cytotoxicity against human A 172 cells assessed as cell viability measured after 96 hrs by XTT assay; assay type: functional, cell-based; conditions: A 172, 96 h
MDA-MB-238 [1] = assay: Inhibition of DNA Topoisomerase-2 in human […] cells assessed as generation of DNA double strand breaks measuring gamma-H2AX at 2 uM incubated for 24 hrs followed by drug washout and measured after 96 hrs by immunofluorescence assay; assay type: cell-based
MDA-MB-238 [2] = assay: Antitumour activity against human […] cells xenografted in athymic nude-Foxn 1nu mouse assessed as inhibition of tumour growth at 1.9 mg/kg, ip measured after 5 weeks; assay type: functional, organism-based
MDA-MB-238 [3] = assay: Cytotoxicity against human […] cells assessed as cell viability measured after 96 hrs by XTT assay; assay type: functional, cell-based
MDA-MB-238 [4] = assay: Inhibition of DNA Topoisomerase-2 in human […] cells assessed as generation of DNA double strand breaks by measuring gamma-H2AX at 2 uM incubated for 24 hrs followed by drug washout and measured after 24 hrs by immunofluorescence assay; assay type: cell-based
WM 266-4 = assay: Cytotoxicity against human WM 266-4 cells assessed as cell viability measured after 96 hrs by XTT assay; assay type: functional, cell-based; conditions: WM 266-4, 96 h
NCI-H1299 = assay: Cytotoxicity against human NCI-H1299 cells assessed as cell viability measured after 96 hrs by XTT assay; assay type: functional, cell-based; conditions: NCI-H1299, 96 h
DNA [5] = assay: Induction of DNA methylation in human HCT-116 cells assessed as reduction of MGMT expression at 400 uM measured after 48 hrs by Western blot assay relative to control; assay type: functional, cell-based; set-up: scale not given: the % may be the effect or the level left
DNA [6] = assay: Induction of DNA methylation in human HCT-116 cells assessed as reduction of MGMT expression at 200 uM measured after 48 hrs by Western blot assay relative to control; assay type: functional, cell-based; set-up: scale not given: the % may be the effect or the level left
MDA-MB-238 [7] = assay: Inhibition of DNA Topoisomerase-2 in human […] cells assessed as generation of DNA double strand breaks measuring gamma-H2AX at incubated for 24 hrs followed by drug washout and measured after 24 to 96 hrs by immunofluorescence assay; assay type: cell-based
[8] = Drug metabolism in human MDA-MB-231 cells assessed as increase of free amonafide in cell at 25 uM measured after 2 hrs by fluorescence based microscopic assay; assay type: ADME; conditions: mda-mb-231, 2 h
[9] = Drug metabolism in human MDA-MB-231 cells xenografted in athymic Balb/c mouse assessed as increase of free amonafide in tumor at 10 mg/kg, ip measured after 120 hrs by fluorescence based microscopic assay; assay type: ADME, organism-based; conditions: in vivo
MDA-MB-238 [10] = assay: Antitumour activity against human […] cells xenografted in athymic nude-Foxn 1nu mouse assessed as inhibition of tumour growth at 3.8 mg/kg, ip measured after 5 weeks; assay type: functional, organism-based

Row | Drug metabolism [8] | Drug metabolism [9] | SMILES | IC50 (A 172) | inhibition (MDA-MB-238 [1]) | Activity (MDA-MB-238 [2]) | IC50 (MDA-MB-238 [3]) | inhibition (MDA-MB-238 [4]) | IC50 (WM 266-4) | IC50 (NCI-H1299) | Activity (DNA [5]) | Activity (DNA [6]) | inhibition (MDA-MB-238 [7]) | Activity (MDA-MB-238 [10])
1 |  |  | CN(C)CCN1C(=O)c2cccc3cc(N)cc(c23)C1=O [AMONAFIDE] | 23.8 µM | Active | Active | 24.2 µM | Active | 6.92 µM | 8.84 µM |  |  |  | 
2 |  |  | Cn1nnc2c(C(N)=O)ncn2c1=O [TEMOZOLOMIDE] | > 40 µM |  |  | > 100 µM |  | > 100 µM | > 100 µM | 57% | 93% | inactive | 
3 |  |  | COC(=O)N(C)/N=N/c1ccc(COC(=O)Nc2ccc3c4c(cccc24)C(=O)N(CCN(C)C)C3=O)cc1 | 7.46 µM |  |  | 6.26 µM |  | 4.86 µM | 3.61 µM |  |  |  | 
4 |  |  | COC(=O)N(C)/N=N/c1ccc(CO)cc1 | > 40 µM |  |  | > 100 µM |  | > 100 µM | > 100 µM | 48% | 75% |  | 
5 | Metabolite_Detected | Metabolite_Detected | COC(=O)N(C)/N=N/c1ccc(COC(=O)Nc2cc3c4c(cccc4c2)C(=O)N(CCN(C)C)C3=O)cc1 | 2.73 µM | Active | Active | 3.02 µM | Active | 3.79 µM | 1.79 µM |  |  |  | Active
